Laboratory results as given in US20230270731A1, “THERAPEUTIC COMPOUNDS AND COMPOSITIONS” (eXIthera Pharmaceuticals, Inc., priority 2019, published 2023).
In brackets after ≈: the same amount, converted by molar mass. Like-named read-outs stand apart in the source and are kept apart here.

What was measured:
Format in all cases: physicochemical
[1] = Compatibility with infusion vehicles (NS, D5W)
Protocol: The compatibility of the reconstituted Compound 1 formulation with two infusion vehicles, normal saline (NS) and 5% dextrose in water (D5W) was tested after Δt=4 h for two concentration (high/low) at c(Compound 1, target)=0.1 mg/mL and c(Compound 1, target)=1.0 mg/mL and at ambient conditions (Table 10). The average values of % recovery are relative to the dilution of the reconstituted drug product into DI water at to.

[2] = Citrate and PBS vehicle formulations: pH, osmolality, concentration and recovery (HPLC)
Protocol: Two additional vehicles: sodium citrate (50 mM) and PBS (commercial) were formulated at different concentrations (Table 5, Table 6). Both vehicles at any concentration were compounded using the appropriate final sodium hydroxide concentration (0.1 M NaOH stock solution).
The PBS vehicle was compounded to two different pH-values while the citrate vehicle was compounded at different concentrations at the same target pH and tested for its stability over the course of 24 h (rt, exclusion from light). To evaluate the potential occurrence of particles from precipitation, a filtration step (0.2 μm micro centrifugal filters) was included at each time point.
In case of Sample #27 the amount of HCl (aq.) (0.1 M stock) added instead of the NaOH-solution was mixed with the 10×PBS buffer and added to the aqueous solution of Compound 1 in a single step.

[3] = Reconstitution and reconstitution stability of the lyophilized Compound 1 drug product; details: reconstituted drug product
Protocol: The lyophilized Compound 1 drug product was subjected to testing of reconstitution and to stability testing for 6 h after reconstituted with DI water VDIwater=5 mL.
The lyophilization cake readily reconstituted within 10-20 s. The solution during reconstitution appeared quite foamy and contained many bubbles, which cleared within approximately 2 min addition of the reconstitution solution. Residual micro-bubbles on the container wall can be removed by vortexing (2 s) or sonication (2 s). […] The pH of the reconstituted solution was measured with pH=6.81; the osmolality was determined to φ=295 mOsm/kg. The reconstituted solution was practically free of particulates as determined by liquid particle counting (LPC, HIAC: Vsample=5 mL, nruns=4, 1st run discarded, fdilution=10, Vnominal, container=2 mL) with a cumulative count of 3200 particles at a size of 10 μm and 667 particles at a size of 25 μm.
The recovery of Compound 1 was monitored for 24 h after reconstitution to test for the in-use stability of the reconstituted solution (Table 9)

[4] = Equilibrium solubility of Compound 1 in common buffers; details: thermodynamic from solid, read-out: Avg. c(Compound 1, FB), equilibrium solubility
Protocol: The equilibrium solubility of Compound 1 was tested in common buffers (Table 2) at a buffer strength of c(buffer)=200 mM. For this, samples of Compound 1 with c(Compound 1, target)=16 mg/mL were prepared in the different buffer solutions (Table 3), mixed by vortexing and inspected for solid residues. For the cases for which no solid residues were observed the solutions were arbitrarily supplemented with additional solid Compound 1. This process was repeated (hourly observation) until a solid residue remained readily observable. The samples were rotated at room temperature for 24 h.
The equilibrium solubility samples were cleared by centrifugation (table top centrifuge, rcf=16,100×g, 10 min). The supernatant was subjected to HPLC analysis and assayed in triplicates for Compound 1 concentration using the HPLC method described in Example 2. The pH of the supernatant was measured (Table 3).

[5] = Compatibility with infusion bags; details: infus. bag1, t0 (Table 15)
[6] = Compatibility with infusion bags
Protocol: (§1) The compatibility of the reconstituted Compound 1 formulation with two infusion bags (different volumes and material) and two IV lines was tested (Table 13) at c(Compound 1)=0.1 mg/mL. After injection of the reconstituted drug product solution into infusion bags filled with NS, the recovery of Compound 1 was measured i) directly after mixing with the infusion vehicle (to, Table 14) and ii) after Δt=[…] of contact time with the infusion bag (Table 15). Additionally, storage in an infusion bag at ambient temperature and lighting conditions was assessed for Δt=6 h (Table 15). The average values of % recovery are relative to the reconstituted drug product that has not been in contact with the tested materials.

[7] = Compatibility with IV systems
Protocol: as §1
The two IV systems were evaluated for compatibility with the reconstituted drug product solution by filling the IV lines with the diluted (NS) drug product solution and flowing Vflow through (FT)=101 mL through the respective IV system at a flow rate of 5 mL/min. Flow-through samples of Vsample=1 mL were collected i) immediately (VFT=0 mL), ii) after VFT=10 mL and iii) after VFT=[…]. Flow through samples were assayed for recovery of Compound 1 and compared to the infusion solution in the reservoir at t0 (Table 16).

For `C[C@@H](NC(=O)N1C(=O)[C@H](Cc2ccnc(N)c2)[C@H]1C(=O)O)C1CCCCC1` [Compound 1, (2S,3R)-3-[(2-aminopyridin-4-yl)methyl]-1-{[(1R)-1-cyclohexylethyl]carbamoyl}-4-oxoazetidine-2-carboxylic acid], the “Avg. c(Compound 1, FB, Obs.)” value ([1]; target 0.1 mg/mL, D5W, t = 4 h, ambient) was 0.09 mg/mL, the “Avg. c(Compound 1, FB, Obs.)” value ([1]; target 0.1 mg/mL, NS, t = 4 h, ambient) was 0.09 mg/mL and the “Avg. c(Compound 1, FB, Obs.)” value ([1]; target 0.1 mg/mL, Water, t0) was 0.09 mg/mL. The “Avg. c(Compound 1, FB, Obs.)” value ([1]; target 0.1 mg/mL, Water, t = 4 h, ambient) was 0.09 mg/mL, the “Avg. c(Compound 1, FB, Obs.)” value ([1]; target 1.0 mg/mL, D5W, t = 4 h, ambient) was 0.92 mg/mL and the “Avg. c(Compound 1, FB, Obs.)” value ([1]; target 1.0 mg/mL, NS, t = 4 h, ambient) was 0.92 mg/mL. For the same compound, the “Avg. c(Compound 1, FB, Obs.)” value ([1]; target 1.0 mg/mL, Water, t0) was 0.92 mg/mL, the “Avg. c(Compound 1, FB, Obs.)” value ([1]; target 1.0 mg/mL, Water, t = 4 h, ambient) was 0.92 mg/mL and the “Stability of Compound 1 in citrate buffer” value ([2]; 24 h, ambient temperature) was “confirmed”. For the same compound, the “Precipitation of Compound 1” value ([2]; citrate buffer, within 24 h) was “not observed”, the “Avg. c(Compound 1, FB, Obs.)” value ([3]; t0) was 9.65 mg/mL and the “pH (Meas.)” value ([3]; t0) was 6.80. The “Avg. c(Compound 1, FB, Obs.)” value ([3]; t = 1 h) was 9.47 mg/mL, the “pH (Meas.)” value ([3]; t = 1 h) was 6.79 and the “Avg. c(Compound 1, FB, Obs.)” value ([3]; t = 2 h) was 9.20 mg/mL. For the same compound, the “pH (Meas.)” value ([3]; t = 2 h) was 6.80, the “Avg. c(Compound 1, FB, Obs.)” value ([3]; t = 4 h) was 9.19 mg/mL and the “pH (Meas.)” value ([3]; t = 4 h) was 6.79. For the same compound, the “Avg. c(Compound 1, FB, Obs.)” value ([3]; t = 6 h) was 9.28 mg/mL, the “pH (Meas.)” value ([3]; t = 6 h) was 6.79 and the “Avg. c(Compound 1, FB, Obs.)” value ([3]; t = 24 h) was 8.99 mg/mL. The “pH (Meas.)” value ([3]; t = 24 h) was 6.85, the solubility thermodynamic at 24 h ([4]; citrate buffer, pH 2.72, aqueous buffer, citric acid/sodium 200 mM, pH (Buffer) 3.00, pH (Meas.) 2.72, room temperature 24 h) was 5960 µg/mL (≈ 15.9 mM) and the solubility thermodynamic at 24 h ([4]; citrate buffer, pH 3.74, aqueous buffer, citric acid/sodium 200 mM, pH (Buffer) 4.00, pH (Meas.) 3.74, room temperature 24 h) was 6200 µg/mL (≈ 16.6 mM). It also gave a solubility thermodynamic at 24 h ([4]; pH 1.29, aqueous buffer, phosphoric acid/sodium phosphate 200 mM, pH (Buffer) 2.00, pH (Meas.) 1.29, room temperature 24 h) of 159000 µg/mL (≈ 424 mM), a solubility thermodynamic at 24 h ([4]; pH 4.57, aqueous buffer, acetic acid/sodium acetate 200 mM, pH (Buffer) 5.00, pH (Meas.) 4.57, room temperature 24 h) of 7480 µg/mL (≈ 20 mM) and a solubility thermodynamic at 24 h ([4]; pH 6.33, aqueous buffer, sodium phosphate 200 mM, pH (Buffer) 7.00, pH (Meas.) 6.33, room temperature 24 h) of 12000 µg/mL (≈ 32 mM). The solubility thermodynamic at 24 h ([4]; pH 6.67, aqueous buffer, sodium phosphate 200 mM, pH (Buffer) 8.00, pH (Meas.) 6.67, room temperature 24 h) was 15300 µg/mL (≈ 40.9 mM), the “Avg. c(Compound 1, FB, Obs.)” value [5] was 0.09 mg/mL and the “Avg. c(Compound 1, FB, Obs.)” value ([6]; Sample soln. (water), no contact with bags) was 0.09 mg/mL. For the same compound, the “Avg. c(Compound 1, FB, Obs.)” value ([6]; infus. bag1 (500 mL Viaflo, NS), t0, vs sample soln.) was 0.09 mg/mL, the “Avg. c(Compound 1, FB, Obs.)” value ([6]; infus. bag1, t = 10 min) was 0.09 mg/mL and the “Avg. c(Compound 1, FB, Obs.)” value ([6]; infus. bag1, t = 6 h, ambient) was 0.09 mg/mL. For the same compound, the “Avg. c(Compound 1, FB, Obs.)” value ([6]; infus. bag2 (50 mL Viaflex, NS), t0, vs sample soln.) was 0.08 mg/mL, the “Avg. c(Compound 1, FB, Obs.)” value ([6]; infus. bag2, t = 10 min) was 0.08 mg/mL and the “Avg. c(Compound 1, FB, Obs.)” value ([6]; infus. bag2, t = 6 h, ambient) was 0.08 mg/mL. For the same compound, the “adsorption of Compound 1 to infusion bag material” value ([6]; infusion bag #1 (Viaflo) compared with infusion bag #2 (Viaflex), immediately after contact) was “lesser extent of Compound 1 adsorption”, the “Avg. c(Compound 1, FB, Obs.)” value ([7]; IV#1, VFT = 0 mL, 5 mL/min) was 0.09 mg/mL and the “Avg. c(Compound 1, FB, Obs.)” value ([7]; IV#1, VFT = 10 mL, 5 mL/min) was 0.09 mg/mL. For the same compound, the “Avg. c(Compound 1, FB, Obs.)” value ([7]; IV#1, VFT = 100 mL, 5 mL/min) was 0.09 mg/mL, the “Avg. c(Compound 1, FB, Obs.)” value ([7]; IV#2, VFT = 0 mL, 5 mL/min) was 0.09 mg/mL and the “Avg. c(Compound 1, FB, Obs.)” value ([7]; IV#2, VFT = 10 mL, 5 mL/min) was 0.09 mg/mL. For the same compound, the “Avg. c(Compound 1, FB, Obs.)” value ([7]; IV#2, VFT = 100 mL, 5 mL/min) was 0.09 mg/mL, the “Avg. c(Compound 1, FB, Obs.)” value ([7]; infus. bag, t0 (IV#1), reservoir) was 0.09 mg/mL and the “Avg. c(Compound 1, FB, Obs.)” value ([7]; infus. bag, t0 (IV#2), reservoir) was 0.09 mg/mL.
